For experiment [1], the system named is RAW264.7. The experiment is described as follows: Antiinflammatory activity in LPS-induced mouse RAW264.7 cells assessed as inhibition of NO production preincubated for 1 hr followed by LPS stimulation and measured after 24 hrs by microplate reader based analysis. The experiment is classed as functional, cell-based.
The test system of experiment [2] is RAW264.7. The experiment in a line: Cytotoxicity against mouse RAW264.7 cells incubated for 24 hrs by MTT assay. It counts as functional, cell-based. Conditions: RAW264.7, 24 h. (In general: Formazan colour is commonly taken as a measure of viable cells.)

Structures are written as SMILES.

For orientation: IC50 means the concentration needed to halve the response being measured.

Regarding `CC(C)C1=C[C@]23OC[C@@]4(CCCC(C)(C)[C@@H]4C[C@H]2O)[C@@]3(O)CC1`, the IC50 is 20 µM in the experiment on RAW264.7 [1] and more than 50 µM in the experiment on RAW264.7 [2].
Taken in the same sequence, the figures for `C[C@@H]1C[C@H]2[C@@H]3CCC4=CC(=O)C=C[C@]4(C)[C@@]3(F)[C@@H](O)C[C@]2(C)[C@@]1(O)C(=O)CO` [DEXAMETHASONE] were 0.3 µM and more than 50 µM.
Taken in the same sequence, the figures for `CC(C)[C@]1(O)C=C2[C@H](O)C[C@H]3C(C)(C)CCC[C@]3(C)[C@@]2(O)CC1` were 13.7 µM and more than 50 µM.
For `CC(C)C1=C[C@@]23CC[C@H]4C(C)(C)CCC[C@]4(CO2)[C@@]3(O)CC1` the same measures were 36.8 µM and 44.4 µM.
With `CO[C@@H]1O[C@]23C=C(C(C)C)CC[C@]2(O)[C@]12CCCC(C)(C)[C@@H]2CC3`, the IC50 in the experiment with RAW264.7 [1] was 4.1 µM; with RAW264.7 [2], more than 50 µM.
As for `CC(C)[C@]1(O)C=C2CC[C@H]3C(C)(C)CCC[C@]3(C)[C@@]2(O)CC1`, the IC50 is 3.6 µM in the experiment with RAW264.7 [1] and more than 50 µM in the experiment on RAW264.7 [2].
For `CC(C)C1=C[C@@]23CC[C@H]4C(C)(C)CCC[C@]4([C@H](O)O2)[C@@]3(O)CC1` the same measures were more than 50 µM and more than 50 µM.
Taken in the same sequence, the figures for `CC(C)C1=CC2=CC[C@H]3C(C)(C)CCC[C@]3(C=O)[C@@]2(O)CC1` were 4.3 µM and more than 50 µM.

For the origin of these results see ChEMBL document CHEMBL6078664, “Abietane Diterpenoids from the Rhizomes of Kaempferia roscoeana and Their Anti-Inflammatory Activities” (J Nat Prod, 2024).
